Results taken from patent publication US5596009A, “Fused benzeneoxyacetic acid derivatives” (Ono Pharmaceutical Co., Ltd., priority 1991, dated 1997).

Key:
PGl2 receptor = target: T1, PGl2 receptor (Homo sapiens, UniProt P43119); experiment: Inhibitory activity on binding of ^3 H-iloprost to PGl2 receptor on human blood platelet membrane fraction; conditions: human blood platelet membrane fraction (0.3 mg protein), 10 nM [^3 H]-iloprost, pH 7.4, 24° C., 30 min; read-out: IC50 (inhibition of [^3 H]-iloprost binding to PGl2 receptor)
T1 construct: human blood platelet membrane fraction (0.3 mg protein) was added; from tissue; host or cells: human blood platelets (membrane fraction)
T1 sequence (P43119 whole entry): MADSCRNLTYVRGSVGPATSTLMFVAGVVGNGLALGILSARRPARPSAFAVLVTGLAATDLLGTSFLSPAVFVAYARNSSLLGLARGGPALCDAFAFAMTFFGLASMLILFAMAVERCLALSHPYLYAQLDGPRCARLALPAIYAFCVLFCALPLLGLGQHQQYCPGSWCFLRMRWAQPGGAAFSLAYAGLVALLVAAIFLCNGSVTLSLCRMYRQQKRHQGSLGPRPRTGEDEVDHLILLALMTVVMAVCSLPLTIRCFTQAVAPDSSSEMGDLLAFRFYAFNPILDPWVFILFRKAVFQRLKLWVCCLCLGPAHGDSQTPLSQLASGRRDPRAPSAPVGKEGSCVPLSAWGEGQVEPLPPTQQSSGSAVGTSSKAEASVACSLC
Description: i) Inhibitory activity on binding of ^3 H-iloprost to PGl2 receptor on human blood platelet membrane fraction
50 mM Tris-HCl buffer (pH 7.4) containing 15 mM MgCl2, 5 mM EDTA and 10 nM [^3 H]-iloprost were used as reaction medium. To 0.2 ml of the reaction medium, human blood platelet membrane fraction (0.3 mg protein) was added with or without a test compound. The mixture was incubated at 24° C. for 30 min. After incubation, 4 ml of ice-cold 10 mM Tris-HCl buffer (pH 7.4) was added to the reaction mixture, and filtered through Whatman GF/B glass fiber filter, and washed 4 times with 4 ml of ice-cold 10 mM Tris-HCl buffer (pH 7.4) to separate bound and free [^3 H]-iloprost. After washing, the filter was dried and radioactivity was counted. Non-specific binding was obtained by performing parallel binding experiments in the presence of 10 μM non-labelled iloprost. Specific binding was calculated by subtracting the non-specific binding from the total binding.
The inhibitory effect of test compound was calculated from the following equation.
The percentage of inhibition (%)=100-(B1 /B0 ×100)
B1 : specific [^3 H]-iloprost binding in presence of test compound
B0 : specific [^3 H]-iloprost binding in absence of test compound

[1] = tested on: human blood platelet aggregation; experiment: Inhibitory effect on human blood platelet aggregation; format: cell-based; conditions: human platelet-rich plasma (5×10^5 platelets/mm^3), compound 1 min prior to ADP (4 μm); read-out: IC50 (inhibition of platelet aggregation)
Description: ii) Inhibitory effect on human blood platelet aggregation
Platelet-rich plasma (PRP) was prepared from human blood (5×10^5 platelets/mm^3), and a test compound was added to PRP 1 min prior to the addition of ADP (4 μm). The aggregation was monitored using a platelet aggregometer (NBS HEMA TRACER 601, Niko Bioscience, Japan).

Structure (SMILES)	IC50 (PGl2 receptor) [µM]	IC50 [1] [µM]
O=C(O)COc1cccc2c1CCC(CCC(=O)NN=C(c1ccccc1)c1ccccc1)C2 (centres unmarked) [3 (aa), [2-(2-(Diphenylmethylideneamino)aminocarbonylethyl)-1,2,3,4-tetrahydronaphthalen-5-yl]oxyacetic acid]	6	–
O=C(O)COc1cccc2c1CCCC2CCCC(=O)N(Cc1ccccc1)Cc1ccccc1 (centres unmarked) [3 (bb), [1-(3-(N,N-Dibenzylamino)carbonylpropyl)-1,2,3,4-tetrahydronaphthalen-5-yl]oxyacetic acid]	4.1	–
O=C(O)COc1cccc2c1CCCC2CCCC(=O)NC(c1ccccc1)c1ccccc1 (centres unmarked) [3 (cc), [1-(3-Diphenylmethylaminocarbonylpropyl)-1,2,3,4-tetrahydronaphthalen-5-yl]oxyacetic acid]	2.7	–
O=C(O)COc1cccc2c1CCCC2CCCC(=O)N(c1ccccc1)c1ccccc1 (centres unmarked) [3 (dd), [1-(3-(N,N-Diphenylamino)carbonylpropyl)-1,2,3,4-tetrahydronaphthalen-5-yl]oxyacetic acid]	1.7	5.1
O=C(O)COc1cccc2c1CCCC2CC(=O)NN(c1ccccc1)c1ccccc1 (centres unmarked) [3 (j), [1-((N,N-Diphenylamino)aminocarbonyimethyl)-1,2,3,4-tetrahydronaphthalen-5-yl]oxyacetic acid]	7.6	–
O=C(O)COc1cccc2c1CCCC2CCC(=O)N(Cc1ccccc1)c1ccccc1 (centres unmarked) [3 (l), [1-(2-(N-Benzyl-N-phenylamino)carbonylethyl)-1,2,3,4-tetrahydronaphthalen-5-yl]oxyacetic acid]	2.9	–
O=C(O)COc1cccc2c1CCCC2CCC(=O)N(Cc1ccccc1)Cc1ccccc1 (centres unmarked) [3 (m), [1-(2-Dibenzylaminocarbonylethyl)-1,2,3,4-tetrahydronaphthalen-5-yl]oxyacetic acid]	0.32	–
O=C(O)COc1cccc2c1CCCC2CCC(=O)NC(c1ccccc1)c1ccccc1 (centres unmarked) [3 (o), [1-(2-Diphenylmethylaminocarbonylethyl)-1,2,3,4-tetrahydronaphthalen-5-yl]oxyacetic acid]	0.21	0.4
O=C(O)COc1cccc2c1CCCC2CCC(=O)NN(c1ccccc1)c1ccccc1 (centres unmarked) [3 (p), [1-(2-(N,N-Diphenylamino)aminocarbonylethyl)-1,2,3,4-tetrahydronaphthalen-5-yl]oxyacetic acid]	0.0094	0.11
O=C(O)COc1cccc2c1CCCC2CCC(=O)NC(Cc1ccccc1)c1ccccc1 (centres unmarked) [3 (q), [1-(2-(1,2-Diphenylethyl)aminocarbonylethyl)-1,2,3,4-tetrahydronaphthalen-5-yl]oxyacetic acid]	6.8	–
O=C(O)COc1cccc2c1CCC(CC(=O)NC(c1ccccc1)c1ccccc1)C2 (centres unmarked) [3 (v), [2-(Diphenylmethylaminocarbonylmethyl)-1,2,3,4-tetrahydronaphthalen-5-yl]oxyacetic acid]	0.12	1
O=C(O)COc1cccc2c1CCC(CC(=O)NN(c1ccccc1)c1ccccc1)C2 (centres unmarked) [3 (w), [2-((N,N-Diphenylamino)aminocarbonylmethyl)-1,2,3,4-tetrahydronaphthalen-5-yl]oxyacetic acid]	0.02	0.62
O=C(O)COc1cccc2c1CCC(CCC(=O)N(Cc1ccccc1)Cc1ccccc1)C2 (centres unmarked) [3 (x), [2-(2-(N,N-Dibenzylamino)carbonylethyl)-1,2,3,4-tetrahydronaphthalen-5-yl]oxyacetic acid]	2.7	–

Next, values leading:

IC50 (PGl2 receptor) [µM]	IC50 [1] [µM]	Structure (SMILES)
1.8	7	O=C(O)COc1cccc2c1CCC(CCC(=O)NC(c1ccccc1)c1ccccc1)C2 (centres unmarked) [3 (y), [2-(2-(Diphenylmethylamino)carbonylethyl)-1,2,3,4-tetrahydronaphthalen-5-yl]oxyacetic acid]
0.1	2.3	O=C(O)COc1cccc2c1CCC(CCC(=O)NN(c1ccccc1)c1ccccc1)C2 (centres unmarked) [3 (z), [2-(2-(N,N-Diphenylamino)aminocarbonylethyl)-1,2,3,4-tetrahydronaphthalen-5-yl]oxyacetic acid]
2.3	–	COC(=O)COc1cccc2c1CCC(CN(C)C(=O)CN(c1ccccc1)c1ccccc1)C2 (centres unmarked) [4 (a), Methyl [2-((N-methyl-N-(diphenylaminomethylcarbonyl)amino)methyl)-1,2,3,4-tetrahydronaphthalen-5-yl]oxyacetate]
3.1	8	CN(CC1CCc2c(cccc2OCC(=O)O)C1)C(=O)CN(Cc1ccccc1)c1ccccc1 (centres unmarked) [8 (b), [2-((N-Methyl-N-((N'-benzyl-N'-phenylamino)methylcarbonyl)amino)methyl)-1,2,3,4-tetrahydronaphthalen-5-yl]oxyacetic acid]
0.18	2.5	CCCN(CC1CCc2c(cccc2OCC(=O)O)C1)C(=O)CN(c1ccccc1)c1ccccc1 (centres unmarked) [8 (c), [2-((N-Propyl-N-(diphenylaminomethylcarbonyl)amino)methyl)-1,2,3,4-tetrahydronaphthalen-5-yl]oxyacetic acid]
1.8	5.6	CCCN(CC1CCc2c(cccc2OCC(=O)O)C1)C(=O)CN(Cc1ccccc1)c1ccccc1 (centres unmarked) [8 (d), [2-((N-Propyl-N-((N'-benzyl-N'-phenylamino)methylcarbonyl)amino)methyl)-1,2,3,4-tetrahydronaphthalen-5-yl]oxyacetic acid]
0.48	–	CCCN(CCC1CCc2c(cccc2OCC(=O)O)C1)C(=O)CN(c1ccccc1)c1ccccc1 (centres unmarked) [10 (a), [2-(2-(N-Propyl-N-(diphenylaminomethylcarbonyl)amino)ethyl)-1,2,3,4-tetrahydronaphthalen-5-yl]oxyacetic acid]
8.4	–	CCCN(CCC1CCc2c(cccc2OCC(=O)O)C1)C(=O)CN(Cc1ccccc1)c1ccccc1 (centres unmarked) [10 (b), [2-(2-(N-Propyl-N-((N'-benzyl-N'-phenylamino)methylcarbonyl)amino)ethyl)-1,2,3,4-tetrahydronaphthalen-5-yl]oxyacetic acid]
1.3	–	CN(CCC1CCc2c(cccc2OCC(=O)O)C1)C(=O)CN(c1ccccc1)c1ccccc1 (centres unmarked) [10 (c), [2-(2-(N-Methyl-N-(diphenylaminomethylcarbonyl)amino)ethyl)-1,2,3,4-tetrahydronaphthalen-5-yl]oxyacetic acid]
0.68	8.3	O=C(O)COc1cccc2c1CCCC2CCC(=O)N(c1ccccc1)c1ccccc1 (centres unmarked) [Example 3, [1-(2-Diphenylaminocarbonylethyl)-1,2,3,4-tetrahydronaphthalen-5-yl]oxyacetic acid]
6.6	–	CN(CC1CCc2c(cccc2OCC(=O)O)C1)C(=O)NC(c1ccccc1)c1ccccc1 (centres unmarked) [Example 7, [2-(N-Methyl-N-(diphenylmethylaminocarbonyl)aminomethyl)-1,2,3,4-tetrahydronaphthalen-5-yl]oxyacetic acid]
